Source: patent US9113629B2, “4-amino-6-(4-substituted-phenyl)-picolinates and 6-amino-2-(4-substituted-phenyl)-pyrimidine-4-carboxylates and their use as herbicides” (DOW AGROSCIENCES LLC, priority 2013, dated 2015)
Read-outs that look alike come from different tables or passages of the source.

What was measured:
[1] = system: Key Broadleaf Weed and Crop Species; test: Post-emergent Test II herbicidal activity (Table 5); format: in vivo; conditions: post-emergence, 336 h, post-emergent, 14 days after application; for pest or weed control at 70 g/ha: 70 g ai/ha; for pest or weed control at 140 g/ha: 140 g ai/ha
Method in brief: (§1)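 Percent injury, 0 (none) to 100 (complete kill), was judged visually 14 d after spraying young plants at the first or second true leaf stage with compound in an acetone/DMSO aqueous carrier at 187 L/ha. Plants were kept in a greenhouse at 23–29 °C by day.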

[2] = system: Key Grass and Sedge Weeds as well as Grass Crops; test: Post-emergent Test II herbicidal activity (Table 6); format: in vivo; conditions: post-emergence, 336 h; for pest or weed control at 70 g/ha: application rate 70 g ai/ha; for pest or weed control at 140 g/ha: application rate 140 g ai/ha
Method in brief: as §1

[3] = ABUTH: velvetleaf (Abutilon theophrasti), read-out: Visual Growth Reduction (%) 14 Days After Application ABUTH
[4] = AMARE: redroot pigweed (Amaranthus retroflexus), read-out: Visual Growth Reduction (%) 14 Days After Application AMARE
[5] = BRSNN: oilseed-rape, canola (Brassica napus), read-out: Visual Growth Reduction (%) 14 Days After Application BRSNN
[6] = CHEAL: lambsquarters (Chenopodium album), read-out: Visual Growth Reduction (%) 14 Days After Application CHEAL
[7] = EPHHL: wild poinsettia (Euphorbia heterophylla), read-out: Visual Growth Reduction (%) 14 Days After Application EPHHL
[8] = HELAN: sunflower (Helianthus annuus), read-out: Visual Growth Reduction (%) 14 Days After Application HELAN
[9] = VIOTR: wild pansy (Viola tricolor), read-out: Visual Growth Reduction (%) 14 Days After Application VIOTR
[10] = Triticum aestivum, TRZSS (wheat), read-out: Visual Growth Reduction (%) 14 Days After Application, TRZSS
[11] = CYPES: yellow nutsedge (Cyperus esculentus), read-out: Visual Growth Reduction (%) 14 Days After Application, CYPES
[12] = DIGSA: crabgrass (Digitaria sanguinalis), read-out: Visual Growth Reduction (%) 14 Days After Application, DIGSA
[13] = ECHCG: barnyardgrass (Echinochloa crus-galli), read-out: Visual Growth Reduction (%) 14 Days After Application, ECHCG
[14] = ORYSA: rice (Oryza sativa), read-out: Visual Growth Reduction (%) 14 Days After Application, ORYSA
[15] = SETFA: giant foxtail (Setaria faberi), read-out: Visual Growth Reduction (%) 14 Days After Application, SETFA
[16] = SORVU: grain sorghum (Sorghum vulgare), read-out: Visual Growth Reduction (%) 14 Days After Application, SORVU
[17] = ZEAMX: maize, corn (Zea mays), read-out: Visual Growth Reduction (%) 14 Days After Application, ZEAMX

Nc1cc(-c2cc(F)c(I)cc2F)nc(C(=O)O)c1Cl [Compound 131]
pest or weed control at 70 g/ha [1, 3]: 95 to 100%
pest or weed control at 140 g/ha [1, 3]: 95 to 100%
pest or weed control at 70 g/ha [1, 4]: 95 to 100%
pest or weed control at 140 g/ha [1, 4]: 95 to 100%
pest or weed control at 70 g/ha [1, 5]: 95 to 100%
pest or weed control at 140 g/ha [1, 5]: 95 to 100%
pest or weed control at 70 g/ha [1, 6]: 95 to 100%
pest or weed control at 140 g/ha [1, 6]: 95 to 100%
pest or weed control at 70 g/ha [1, 7]: 95 to 100%
pest or weed control at 140 g/ha [1, 7]: 95 to 100%
pest or weed control at 70 g/ha [1, 8]: 85 to 94%
pest or weed control at 140 g/ha [1, 8]: 95 to 100%
pest or weed control at 70 g/ha [1, 9]: 95 to 100%
pest or weed control at 140 g/ha [1, 9]: 95 to 100%
pest or weed control at 70 g/ha [2, 10]: 60 to 74%
pest or weed control at 140 g/ha [2, 10]: 75 to 84%
pest or weed control at 70 g/ha [2, 11]: 85 to 94%
pest or weed control at 140 g/ha [2, 11]: 85 to 94%
pest or weed control at 70 g/ha [2, 12]: 75 to 84%
pest or weed control at 140 g/ha [2, 12]: 75 to 84%
pest or weed control at 70 g/ha [2, 13]: 95 to 100%
pest or weed control at 140 g/ha [2, 13]: 95 to 100%
pest or weed control at 70 g/ha [2, 14]: 0 to 29%
pest or weed control at 140 g/ha [2, 14]: 30 to 44%
pest or weed control at 70 g/ha [2, 15]: 95 to 100%
pest or weed control at 140 g/ha [2, 15]: 95 to 100%
pest or weed control at 70 g/ha [2, 16]: 60 to 74%
pest or weed control at 140 g/ha [2, 16]: 75 to 84%
pest or weed control at 70 g/ha [2, 17]: 85 to 94%
pest or weed control at 140 g/ha [2, 17]: 85 to 94%

COC(=O)c1nc(-c2ccc(I)cc2)c(C)c(N)c1Cl [Compound 136, methyl 4-amino-3-chloro-6-(4-iodophenyl)-5-methylpicolinate]
pest or weed control at 70 g/ha [1, 3]: 95 to 100%
pest or weed control at 140 g/ha [1, 3]: 95 to 100%
pest or weed control at 70 g/ha [1, 4]: 85 to 94%
pest or weed control at 140 g/ha [1, 4]: 85 to 94%
pest or weed control at 70 g/ha [1, 5]: 85 to 94%
pest or weed control at 140 g/ha [1, 5]: 85 to 94%
pest or weed control at 70 g/ha [1, 6]: 95 to 100%
pest or weed control at 140 g/ha [1, 6]: 95 to 100%
pest or weed control at 70 g/ha [1, 7]: 0 to 29%
pest or weed control at 140 g/ha [1, 7]: 0 to 29%
pest or weed control at 70 g/ha [1, 8]: 95 to 100%
pest or weed control at 140 g/ha [1, 8]: 95 to 100%
pest or weed control at 70 g/ha [1, 9]: 0 to 29%
pest or weed control at 140 g/ha [1, 9]: 0 to 29%
pest or weed control at 70 g/ha [2, 10]: 45 to 59%
pest or weed control at 140 g/ha [2, 10]: 45 to 59%
pest or weed control at 70 g/ha [2, 11]: 95 to 100%
pest or weed control at 140 g/ha [2, 11]: 95 to 100%
pest or weed control at 70 g/ha [2, 12]: 60 to 74%
pest or weed control at 140 g/ha [2, 12]: 60 to 74%
pest or weed control at 70 g/ha [2, 13]: 0 to 29%
pest or weed control at 140 g/ha [2, 13]: 0 to 29%
pest or weed control at 70 g/ha [2, 14]: 0 to 29%
pest or weed control at 140 g/ha [2, 14]: 0 to 29%
pest or weed control at 70 g/ha [2, 15]: 30 to 44%
pest or weed control at 140 g/ha [2, 15]: 45 to 59%
pest or weed control at 70 g/ha [2, 16]: 60 to 74%
pest or weed control at 140 g/ha [2, 16]: 60 to 74%
pest or weed control at 70 g/ha [2, 17]: 60 to 74%
pest or weed control at 140 g/ha [2, 17]: 75 to 84%

COC(=O)c1nc(-c2ccc(OC(F)F)cc2)c(C)c(N)c1Cl [Compound 111, Methyl 4-amino-3-chloro-6-(4-(difluoromethoxy)phenyl)-5-methylpicolinate]
pest or weed control at 70 g/ha [1, 3]: 30 to 44%
pest or weed control at 140 g/ha [1, 3]: 60 to 74%
pest or weed control at 70 g/ha [1, 4]: 0 to 29%
pest or weed control at 140 g/ha [1, 4]: 0 to 29%
pest or weed control at 70 g/ha [1, 5]: 0 to 29%
pest or weed control at 140 g/ha [1, 5]: 0 to 29%
pest or weed control at 70 g/ha [1, 6]: 30 to 44%
pest or weed control at 140 g/ha [1, 6]: 60 to 74%
pest or weed control at 70 g/ha [1, 7]: 0 to 29%
pest or weed control at 140 g/ha [1, 7]: 0 to 29%
pest or weed control at 70 g/ha [1, 8]: 75 to 84%
pest or weed control at 140 g/ha [1, 8]: 85 to 94%
pest or weed control at 70 g/ha [1, 9]: 0 to 29%
pest or weed control at 140 g/ha [1, 9]: 0 to 29%
pest or weed control at 70 g/ha [2, 10]: 0 to 29%
pest or weed control at 140 g/ha [2, 10]: 0 to 29%
pest or weed control at 70 g/ha [2, 11]: 0 to 29%
pest or weed control at 140 g/ha [2, 11]: 0 to 29%
pest or weed control at 70 g/ha [2, 12]: 0 to 29%
pest or weed control at 140 g/ha [2, 12]: 0 to 29%
pest or weed control at 70 g/ha [2, 13]: 0 to 29%
pest or weed control at 140 g/ha [2, 13]: 0 to 29%
pest or weed control at 70 g/ha [2, 14]: 0 to 29%
pest or weed control at 140 g/ha [2, 14]: 0 to 29%
pest or weed control at 70 g/ha [2, 15]: 0 to 29%
pest or weed control at 140 g/ha [2, 15]: 0 to 29%
pest or weed control at 70 g/ha [2, 16]: 0 to 29%
pest or weed control at 140 g/ha [2, 16]: 0 to 29%
pest or weed control at 70 g/ha [2, 17]: 0 to 29%
pest or weed control at 140 g/ha [2, 17]: 0 to 29%

COc1c(N)nc(-c2ccc(I)c(F)c2)nc1C(=O)O [Compound 37, 6-Amino-2-(3-fluoro-4-iodophenyl)-5-methoxypyrimidine-4-carboxylic acid]
pest or weed control at 70 g/ha [1, 3]: 45 to 59%
pest or weed control at 140 g/ha [1, 3]: 60 to 74%
pest or weed control at 70 g/ha [1, 4]: 85 to 94%
pest or weed control at 140 g/ha [1, 4]: 85 to 94%
pest or weed control at 70 g/ha [1, 5]: 95 to 100%
pest or weed control at 140 g/ha [1, 5]: 95 to 100%
pest or weed control at 70 g/ha [1, 6]: 95 to 100%
pest or weed control at 140 g/ha [1, 6]: 95 to 100%
pest or weed control at 70 g/ha [1, 7]: 95 to 100%
pest or weed control at 140 g/ha [1, 7]: 95 to 100%
pest or weed control at 70 g/ha [1, 8]: 85 to 94%
pest or weed control at 140 g/ha [1, 8]: 85 to 94%
pest or weed control at 70 g/ha [1, 9]: 95 to 100%
pest or weed control at 140 g/ha [1, 9]: 95 to 100%
pest or weed control at 70 g/ha [2, 10]: 45 to 59%
pest or weed control at 140 g/ha [2, 10]: 60 to 74%
pest or weed control at 70 g/ha [2, 11]: 0 to 29%
pest or weed control at 140 g/ha [2, 11]: 0 to 29%
pest or weed control at 70 g/ha [2, 12]: 45 to 59%
pest or weed control at 140 g/ha [2, 12]: 60 to 74%
pest or weed control at 70 g/ha [2, 13]: 75 to 84%
pest or weed control at 140 g/ha [2, 13]: 75 to 84%
pest or weed control at 70 g/ha [2, 14]: 0 to 29%
pest or weed control at 140 g/ha [2, 14]: 0 to 29%
pest or weed control at 70 g/ha [2, 15]: 0 to 29%
pest or weed control at 140 g/ha [2, 15]: 60 to 74%
pest or weed control at 70 g/ha [2, 16]: 75 to 84%
pest or weed control at 140 g/ha [2, 16]: 85 to 94%
pest or weed control at 70 g/ha [2, 17]: 0 to 29%
pest or weed control at 140 g/ha [2, 17]: 45 to 59%
